Experimental data: patent publication US10793542B2, “Hetroarylamine compounds for modulating the hedgehog pathway and preparing method and uses thereof” (DEVELOPMENT CENTER FOR BIOTECHNOLOGY, priority 2016, dated 2020)

How the values were obtained:
Assay type in all cases: cell-based
[1] = tested on: hedgehog pathway (pGL3-7xGli-Luciferase reporter in C3H10T1/2 cells); assay: Transient transfection of C3H10T1/2 and Gli-Luc reporter assay with SAG stimulation; conditions: Mus musculus, C3H 10T1/2, SAG 20 nM, 48 hr, read-out: Inhibition of Gli-Luc expression [IC50
Description: A cell-based screen for inhibitors of the hedgehog pathway was performed using a transient transfection system in C3H10T1/2 cells with pGL3-7xGli-Luciferase reporter plasmids C3H10T1/2 cells (ATCC, cat.#CCL-226) were seeded into 6-well plates at 8×10^4 cells/well in a BME medium containing 10% heat-inactivated FBS. Cells were transfected the next morning with 500 ng/well pGL3-7xGli-Luciferase reporter plasmids and 100 ng/well pRL-TK Renilla luciferase reporter plasmids (Promega)using GeneJuice transfection reagent (Novagene). After 24 h, transfected cells were collected by trypsin treatment and re-plated in 96-well plates in an RPMI medium containing 0.5% FBS with a density of 1.5×10^4 cells/well. Compounds were dissolved in DMSO with serial dilutions and were then added to the assay plate. SAG (Hh-Ag 1.3) (Santa Cruz) was added to the assay plated for a final concentration 20 nM. The assay plates were incubated at 37° C. for 48 hr.
(§1) Firefly luciferase and Renilla luciferase activity was determined using the Dual-Glo Luciferase reporter assay system (Promega) with a Victor3 plate reader (PerkinElmer Life Sciences). Firefly luciferase readings were normalized to Renilla luciferase to correct for transfection efficiency. Luminance reading for the C3H10T1/2-Gli-Luc assay was normalized based on DMSO control with SAG stimulation (100% pathway activity) and without SAG stimulation (0% pathway activity). IC50 values, defined as the inflection point of the logistic curve, were determined by nonlinear regression using the Prism 5 software (GraphPad).

Smo D473H mutant = target: T1, Smo D473H mutant (Homo sapiens, UniProt Q99835, D473H); assay: Reporter assay of C3H10T1/2-Gli-Luc cells transfected with Smo D473H mutant, without SAG; conditions: C3H10T1/2 cells transfected with pLPCX-SMO-D473H, no SAG, 48 hr; read-out: Inhibition of C3H10T1/2-Gli-Luc-Smo-D473H [IC50
T1 construct: expressed in transfected cells; host or cells: C3H10T1/2 cells (ATCC CCL-226), transient transfection with pLPCX-SMO-D473H
Description: (§2) A transient transfection system with a Smo wild type or a Smo D473H mutant was also used for compound screening. For the SMO inhibition experiments, cells were transfected with an additional 500 ng/well of wild-type or D473H-mutant type SMO construct (pLPCX-SMO or pLPCX-SMO-D473H). After 24 h, transfected cells were collected by trypsin treatment and re-plated in 96-well plates in an RPMI medium containing 0.5% FBS with a density of 1.5×10^4 cells/well. Compounds were dissolved in DMSO with serial dilutions and were then added to the assay plate. The assay plates were incubated at 37° C. for 48 hr.
as §1
(§3) The reporter assay of C3H10T1/2-Gli-Luc cells transfected with a wild-type, D473H mutant Smo mutant was carried out with the same protocol but without SAG stimulation. Luminance reading for the SMO inhibition experiments assay was normalized based on DMSO control (100% of the pathway activity) and a known Smo antagonist (ALLO-2 at 10 μM, 0% of the pathway activity).

Smo wild type = target: T2, Smo wild type (Homo sapiens, UniProt Q99835); assay: Reporter assay of C3H10T1/2-Gli-Luc cells transfected with wild-type Smo, without SAG; conditions: C3H10T1/2 cells transfected with pLPCX-SMO, no SAG, 48 hr; read-out: Inhibition of C3H10T1/2-Gli-Luc-Smo-WT [IC50
T2 construct: expressed in transfected cells; host or cells: C3H10T1/2 cells (ATCC CCL-226), transient transfection with pLPCX-SMO
Description: as §2, §1, §3

T2 sequence (Q99835 28-787): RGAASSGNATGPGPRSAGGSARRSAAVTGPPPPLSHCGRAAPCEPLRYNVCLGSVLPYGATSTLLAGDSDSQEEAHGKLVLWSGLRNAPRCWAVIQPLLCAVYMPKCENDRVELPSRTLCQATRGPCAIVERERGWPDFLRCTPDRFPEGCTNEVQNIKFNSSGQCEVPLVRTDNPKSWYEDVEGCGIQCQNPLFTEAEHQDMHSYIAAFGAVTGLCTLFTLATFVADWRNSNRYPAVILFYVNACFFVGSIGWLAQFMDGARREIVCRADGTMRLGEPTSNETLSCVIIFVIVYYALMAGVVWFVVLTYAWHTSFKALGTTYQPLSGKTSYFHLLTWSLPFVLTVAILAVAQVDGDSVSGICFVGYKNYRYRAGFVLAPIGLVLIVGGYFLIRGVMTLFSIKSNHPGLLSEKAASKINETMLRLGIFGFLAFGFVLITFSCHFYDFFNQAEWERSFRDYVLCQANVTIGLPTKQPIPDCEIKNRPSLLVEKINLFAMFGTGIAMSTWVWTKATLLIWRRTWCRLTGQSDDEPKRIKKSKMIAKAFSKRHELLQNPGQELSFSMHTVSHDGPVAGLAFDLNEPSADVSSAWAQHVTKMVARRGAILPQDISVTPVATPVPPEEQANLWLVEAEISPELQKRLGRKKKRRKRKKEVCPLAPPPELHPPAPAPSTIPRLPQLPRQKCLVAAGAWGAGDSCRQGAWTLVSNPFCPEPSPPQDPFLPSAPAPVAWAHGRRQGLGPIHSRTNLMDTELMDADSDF
T1 sequence (Q99835 28-787 D473H): as the sequence (Q99835 28-787) above, with D446H counted along it

Row | SMILES | IC50 [1] [nM] | IC50 (Smo D473H mutant) [nM] | IC50 (Smo wild type) [nM]
1 | CSc1cnc(Nc2ccc(C(=O)Nc3cc(CN4CCOCC4)ccc3C)cc2)nc1-c1ccc(F)nc1 [Compound 67, 4-[4-(6-Fluoro-pyridin-3-yl)-5-methylsulfanyl-pyrimidin-2-ylamino]-N-(2-methyl-5-morpholin-4-ylmethyl-phenyl)-benzamide] | < 100 | 100 to 1000 | < 100
2 | CSc1cnc(Nc2ccc(C(=O)Nc3cc(CN4CCOCC4)ccc3C)cc2F)nc1-c1ccc(OC(F)(F)F)cc1 [Compound 40, 3-Fluoro-N-(2-methyl-5-morpholin-4-ylmethyl-phenyl)-4-[5-methylsulfanyl-4-(4-trifluoromethoxy-phenyl)-pyrimidin-2-ylamino]-benzamide] | < 100 | < 100 | < 100
3 | CCOc1ccc(-c2nc(Nc3ccc(C(=O)Nc4ccc(Cl)c(C(F)(F)F)c4)cc3)ncc2SC)cn1 [Compound 7, N-(4-Chloro-3-trifluoromethyl-phenyl)-4-[4-(6-ethoxy-pyridin-3-yl)-5-methylsulfanyl-pyrimidin-2-ylamino]-benzamide] | 100 to 1000 | 100 to 1000 | 100 to 1000
4 | CSc1cnc(Nc2ccc(C(=O)Nc3cc(CN(C)C)ccc3C)cc2)nc1-c1ccc(F)cc1 [Compound 31, N-(5-Dimethylaminomethyl-2-methyl-phenyl)-4-[4-(4-fluoro-phenyl)-5-methylsulfanyl-pyrimidin-2-ylamino]-benzamide] | < 100 | 100 to 1000 | < 100
5 | CSc1cnc(Nc2ccc(C(=O)Nc3ccccc3C)cc2)nc1-c1ccc(OC(F)(F)F)cc1 [Compound 23, 4-[5-Methylsulfanyl-4-(4-trifluoromethoxy-phenyl)-pyrimidin-2-ylamino]-N-o-tolyl-benzamide] | 100 to 1000 | 100 to 1000 | < 100
6 | CSc1cnc(Nc2ccc(C(=O)Nc3cc(CN4CCOCC4)ccc3C)cc2F)nc1-c1cnn(C)c1 [Compound 45, 3-Fluoro-N-(2-methyl-5-morpholin-4-ylmethyl-phenyl)-4-[4-(1-methyl-1H-pyrazol-4-yl)-5-methylsulfanyl-pyrimidin-2-ylamino]-benzamide] | < 100 | < 100 | < 100
7 | CSc1cnc(Nc2ccc(C(=O)Nc3cc(CN(C)C)ccc3C)cc2)nc1-c1ccc(OC(F)(F)F)cc1 [Compound 54, N-(5-Dimethylaminomethyl-2-methyl-phenyl)-4-[5-methylsulfanyl-4-(4-trifluoromethoxy-phenyl)-pyrimidin-2-ylamino]-benzamide] | < 100 | 100 to 1000 | 100 to 1000
8 | COc1cnc(Nc2ccc(C(=O)Nc3cc(CN4CCOCC4)ccc3C)cc2)nc1-c1ccc(C#N)cc1 [Compound 49, 4-[4-(4-Cyano-phenyl)-5-methoxy-pyrimidin-2-ylamino]-N-(2-methyl-5-morpholin-4-ylmethyl-phenyl)-benzamide] | 100 to 1000 | > 1000 | 100 to 1000
9 | CSc1cnc(Nc2ccc(C(=O)Nc3cc(CN4CCOCC4)ccc3C)cc2)nc1-c1ccc(F)cc1 [Compound 30, 4-[4-(4-Fluoro-phenyl)-5-methylsulfanyl-pyrimidin-2-ylamino]-N-(2-methyl-5-morpholin-4-ylmethyl-phenyl)-benzamide] | < 100 | 100 to 1000 | < 100
10 | CSc1cnc(Nc2ccc(C(=O)Nc3cc(CN4CCOCC4)ccc3F)cc2)nc1-c1ccc(F)cc1 [Compound 71, N-(2-Fluoro-5-morpholin-4-ylmethyl-phenyl)-4-[4-(4-fluoro-phenyl)-5-methylsulfanyl-pyrimidin-2-ylamino]-benzamide] | < 100 | < 100 | < 100
11 | COc1cccc(OC)c1NC(=O)c1ccc(Nc2ncc(SC)c(-c3cccnc3F)n2)cc1 [Compound 9, N-(2,6-Dimethoxy-phenyl)-4-[4-(2-fluoro-pyridin-3-yl)-5-methylsulfanyl-pyrimidin-2-ylamino]-benzamide] | < 100 | 100 to 1000 | < 100
12 | CSc1cnc(Nc2ccc(C(=O)Nc3cc(CN(C)C)ccc3C)cc2)nc1-c1ccc(C(F)(F)F)cc1 [Compound 32, N-(5-Dimethylaminomethyl-2-methyl-phenyl)-4-[5-methylsulfanyl-4-(4-trifluoromethyl-phenyl)-pyrimidin-2-ylamino]-benzamide] | 100 to 1000 | 100 to 1000 | 100 to 1000
13 | CSc1cnc(Nc2ccc(C(=O)Nc3cc(CN4CCN(C)CC4)ccc3C)cc2)nc1-c1ccc(C#N)cc1 [Compound 35, 4-[4-(4-Cyano-phenyl)-5-methylsulfanyl-pyrimidin-2-ylamino]-N-[2-methyl-5-(4-methyl-piperazin-1-ylmethyl)-phenyl]-benzamide] | < 100 | 100 to 1000 | < 100
14 | COc1cnc(Nc2ccc(C(=O)Nc3cc(CN4CCN(C)CC4)ccc3C)cc2F)nc1-c1ccc(OC(F)(F)F)cc1 [Compound 62, 3-Fluoro-4-[5-methoxy-4-(4-trifluoromethoxy-phenyl)-pyrimidin-2-ylamino]-N-[2-methyl-5-(4-methyl-piperazin-1-ylmethyl)-phenyl]-benzamide] | < 100 | 100 to 1000 | < 100
15 | CSc1cnc(Nc2ccc(C(=O)Nc3cc(CN4CCOCC4)ccc3F)cc2F)nc1-c1ccc(OC(F)(F)F)cc1 [Compound 55, 3-Fluoro-N-(2-fluoro-5-morpholin-4-ylmethyl-phenyl)-4-[5-methylsulfanyl-4-(4-trifluoromethoxy-phenyl)-pyrimidin-2-ylamino]-benzamide] | < 100 | < 100 | < 100
16 | CSc1cnc(Nc2ccc(C(=O)Nc3cc(CN4CCOCC4)ccc3C)cc2)nc1-c1cnn(C)c1 [Compound 39, N-(2-Methyl-5-morpholin-4-ylmethyl-phenyl)-4-[4-(1-methyl-1H-pyrazol-4-yl)-5-methylsulfanyl-pyrimidin-2-ylamino]-benzamide] | 100 to 1000 | 100 to 1000 | 100 to 1000
17 | CSc1cnc(Nc2ccc(C(=O)Nc3cccc(CN4CCOCC4)c3)cn2)nc1-c1ccc(OC(F)(F)F)cc1 [Compound 64, 6-[5-Methylsulfanyl-4-(4-trifluoromethoxy-phenyl)-pyrimidin-2-ylamino]-N-(3-morpholin-4-ylmethyl-phenyl)-nicotinamide] | < 100 | < 100 | < 100
18 | CSc1cnc(Nc2ccc(C(=O)Nc3cc(CN4CCCCC4)ccc3C)cc2)nc1-c1ccc(C(F)(F)F)cc1 [Compound 28, N-(2-Methyl-5-piperidin-1-ylmethyl-phenyl)-4-[5-methylsulfanyl-4-(4-trifluoromethyl-phenyl)-pyrimidin-2-ylamino]-benzamide] | < 100 | 100 to 1000 | 100 to 1000
19 | Cc1ccc(CN2CCOCC2)cc1NC(=O)c1ccc(Nc2ncc([S+](C)[O-])c(-c3ccc(OC(F)(F)F)cc3)n2)cc1 (stereo not drawn) [Compound 85, 4-[5-Methanesulfinyl-4-(4-trifluoromethoxy-phenyl)-pyrimidin-2-ylamino]-N-(2-methyl-5-morpholin-4-ylmethyl-phenyl)-benzamide] | < 100 | < 100 | < 100
20 | CCN(CC)Cc1ccc(C)c(NC(=O)c2ccc(Nc3cc(-c4ccc(OC(F)(F)F)cc4)c(SC)cn3)cc2)c1 [Compound 87, N-(5-((diethylamino)methyl)-2-methylphenyl)-4-((5-(methylthio)-4-(4-(trifluoromethoxy)phenyl)pyridin-2-yl)amino)benzamide] | < 100 | < 100 | < 100
21 | COc1cnc(Nc2ccc(C(=O)Nc3cc(CN4CCNCC4)ccc3C)cc2F)nc1-c1ccc(F)cc1 [Compound 80, 3-Fluoro-4-[4-(4-fluoro-phenyl)-5-methoxy-pyrimidin-2-ylamino]-N-(2-methyl-5-piperazin-1-ylmethyl-phenyl)-benzamide] | < 100 | 100 to 1000 | 100 to 1000
